The source of these data is patent US8258103B2, “Pesticidal composition” (Sumitomo Chemical Company, Limited, priority 2007, dated 2012).

The test system of assay [1] is Spodoptera litura. The experiment in a line: Test Example 1: cabbage leaf immersion test, insecticidal rate on fourth-instar larvae. The format is in vivo. Conditions: for Found value of insecticidal rate (%): after 2 days. The protocol:
(§1) The theoretical value of an insecticidal (ovicidal) rate obtained by using a mixture of 2 kinds of active ingredients was calculated by the following formula: E=X+Y−(X×Y/100), which conforms to the Colby's formula. X: Insecticidal rate (%) of the active ingredient A at M Ppm Y: Insecticidal rate (%) of the active ingredient B at N ppm E: Theoretical insecticidal rate (%) of combination use of the active ingredient A at M ppm and the active ingredient B at N ppm
(§2) When an actual insecticidal (ovicidal) rate exceeds the theoretical value, it is determined that the used two active ingredients produce a synergetic effect.
(1) 12 parts of spinetoram as the present compound 1, 35 parts of a carrier on which a polyoxyethylene alkyl ether sulfate ammonium salt and white carbon in a weight ratio of 1:1 were adsorbed, and 53 parts of water were mixed, and finely milled by a wet milling method to obtain a spinetoram formulation (hereinafter, referred to as the formulation A).
(2) A flowable formulation containing 10 parts of pyridalyl, which is the present compound 2, as the active ingredient (trade name: PLEO flowable, manufactured by Sumitomo Chemical Co., Ltd.) (hereinafter, referred to as the formulation B) was used.
(3) The formulation A was diluted with water to prepare a water dilution having an active ingredient concentration shown in Table 1. To the water dilution, 1/5,000 volume of a spreading agent (Sindain, manufactured by Sumitomo Chemical Takeda Agro Co., Ltd.) was added to prepare a test solution containing the present compound 1. The formulation B was diluted with water to prepare a water dilution having an active ingredient concentration shown in Table 1. To the water dilution, 1/5,000 volume of a spreading agent (Sindain, manufactured by Sumitomo Chemical Takeda Agro Co., Ltd.) was added to prepare a test solution containing the present compound 2.
A water dilution of the formulation A and a water dilution of the formulation B were mixed so that the respective active ingredients could reach concentrations shown in Table 1. To the mixture, 1/5,000 volume of a spreading agent (Sindain, manufactured by Sumitomo Chemical Takeda Agro Co., Ltd.) was added to prepare a test solution containing the present compound 1 and the present compound 2.
(4) A cabbage was planted in a pot and grown until the fourth leaf stage. The leaves of the cabbage were cut off one by one, and then immersed in the above-described test solution for 60 seconds. After air drying, the cabbage leaves were each placed in a cup with a filter paper spread on the bottom. Ten fourth-instar larvae of Spodoptera litura were released into each cup. […] An insecticidal rate was calculated and corrected according to the following formula.
Insecticidal rate (%)=100×(Mt−Mc)/(100−Mc)
(§3) Mt: Worm death rate (%) in a section treated with a test compound
(§4) Mc: Worm death rate (%) in a section not treated with a test compound

The test system of assay [2] is Spodoptera litura. Nature of the assay: Test Example 2: cabbage leaf immersion test, insecticidal rate on fourth-instar larvae. The format is in vivo. The conditions noted are these: after 2 days. As to the method: as §1, §2
(1) The formulation A was diluted with water to prepare a water dilution having an active ingredient concentration shown in Table 2. To the water dilution, 1/5,000 volume of a spreading agent (Sindain, manufactured by Sumitomo Chemical Takeda Agro Co., Ltd.) was added to prepare a test solution containing the present compound 1.
The formulation B was diluted with water to prepare a water dilution having an active ingredient concentration shown in Table 2. To the water dilution, 1/5,000 volume of a spreading agent (Sindain, manufactured by Sumitomo Chemical Takeda Agro Co., Ltd.) was added to prepare a test solution containing the present compound 2.
A water dilution of the formulation A and a water dilution of the formulation B were mixed so that the respective active ingredients could reach concentrations shown in Table 2. To the mixture, 1/5,000 volume of a spreading agent (Sindain, manufactured by Sumitomo Chemical Takeda Agro Co., Ltd.) was added to prepare a test solution containing the present compound 1 and the present compound 2.
(2) A cabbage was planted in a pot and grown until the fourth leaf stage. The leaves of the cabbage were cut off one by one, and then immersed in the above-described test solution for 60 seconds. After air drying, the cabbage leaves were each placed in a cup with a filter paper spread on the bottom. Ten fourth-instar larvae of Spodoptera litura were released into each cup. […] An insecticidal rate was calculated and corrected according to the following formula. Insecticidal rate (%)=100×(Mt−Mc)/(100−Mc)
as §3, §4

For the compound `FC(F)(F)c1ccc(OCCCOc2c(Cl)cc(OCC=C(Cl)Cl)cc2Cl)nc1` [Pyridalyl (present compound 2), 2,6-dichloro-4-(3,3-dichloroallyloxy)phenyl 3-[5-(trifluoromethyl)-2-pyridyloxy]propyl ether], the “Theoretical value of insecticidal rate (%)” value in assay [1] (2.5 ppm single ingredient) amounted to 0%. The “Found value of insecticidal rate (%)” value is given as 0% in assay [1] (2.5 ppm single ingredient), 0% in assay [2] (0.25 ppm single ingredient) and 16.7% in assay [2] (2.5 ppm single ingredient).

In the case of “spinetoram [Spinetoram (present compound 1)]”, the “Theoretical value of insecticidal rate (%)” value in assay [1] (0.73 ppm single ingredient) and in assay [1] (2.9 ppm single ingredient) was 0% in each case. Moreover, the “Found value of insecticidal rate (%)” value in assay [1] (0.73 ppm single ingredient), in assay [1] (2.9 ppm single ingredient), in assay [2] (0.25 ppm single ingredient) and in assay [2] (2.5 ppm single ingredient) was 0% throughout.
